Reference: publication PMC5502478 (ACS chemical biology, 2016)

Assays:
Assay type in all cases: cell-based
[1] = tested on: Human erythrocytes; test: Hemolytic assay; conditions: tested concentrations
[2] = tested on: Candida albicans ATCC 10231; conditions: compared to 1 and 2
[3] = tested on: Candida glabrata ATCC 2001; test: MIC, serial dilution antifungal assay

| Substance | hemolytic activity relative to pneumocandin B0 (overall) [1] | fold more potent (MIC) than wild-type fermentation products 1 and 2 against C. albicans [2] [fold] | fold improvement of MIC against C. glabrata compared to 1 [3] [fold] |
| --- | --- | --- | --- |
| pneumocandin I [Compound 5] | comparable to pneumocandin B0 | 8 | 32 |
| pneumocandin K [Compound 7] | higher hemolytic activity than pneumocandin B0 | 4 | 32 |
